According to US12404241B2 (Celgene Corporation, priority 2018, dated 2025):
Structures can show the parent of a compound that is named as a salt.

Molecular target: T1, AR (Homo sapiens, UniProt P10275)
T1 construct: endogenous in cells; host or cells: VCaP cells
T1 sequence (P10275 1-920): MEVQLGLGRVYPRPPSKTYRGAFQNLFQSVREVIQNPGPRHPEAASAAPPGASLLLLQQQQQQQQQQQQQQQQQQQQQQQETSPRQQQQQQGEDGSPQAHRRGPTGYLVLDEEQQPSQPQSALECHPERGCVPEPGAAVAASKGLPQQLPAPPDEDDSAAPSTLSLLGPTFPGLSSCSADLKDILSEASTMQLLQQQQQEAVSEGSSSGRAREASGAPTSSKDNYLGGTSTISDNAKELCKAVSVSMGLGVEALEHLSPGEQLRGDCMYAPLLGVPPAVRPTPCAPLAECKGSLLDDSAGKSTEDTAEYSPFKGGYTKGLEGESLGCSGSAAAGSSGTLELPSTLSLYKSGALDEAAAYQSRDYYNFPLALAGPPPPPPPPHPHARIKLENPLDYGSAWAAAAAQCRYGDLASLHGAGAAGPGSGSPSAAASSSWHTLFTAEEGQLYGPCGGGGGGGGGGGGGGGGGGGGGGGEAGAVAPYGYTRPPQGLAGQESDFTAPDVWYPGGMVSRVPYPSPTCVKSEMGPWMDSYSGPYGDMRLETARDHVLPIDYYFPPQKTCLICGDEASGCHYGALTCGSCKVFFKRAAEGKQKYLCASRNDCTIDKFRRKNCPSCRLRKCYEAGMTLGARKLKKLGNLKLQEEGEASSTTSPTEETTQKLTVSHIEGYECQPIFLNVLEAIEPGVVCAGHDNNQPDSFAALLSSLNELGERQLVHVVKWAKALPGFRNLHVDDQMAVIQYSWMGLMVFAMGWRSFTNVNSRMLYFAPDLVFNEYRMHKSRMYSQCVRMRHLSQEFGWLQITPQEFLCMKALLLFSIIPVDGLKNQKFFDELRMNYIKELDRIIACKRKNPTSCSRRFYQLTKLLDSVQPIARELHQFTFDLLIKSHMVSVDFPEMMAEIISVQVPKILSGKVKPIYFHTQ
Experiment: VCAP AR Degradation Assay
Type: cell-based
Settings: for Y (AR degradation efficiency, % of DMSO control): class symbols *; for DC50: class symbols A-C, read-out: DC50
Protocol: VCAP AR Degradation Assay. Test compounds were pre-dispensed into a Corning CellBind 96-well clear bottom plate (Cat #3300) using an acoustic dispenser to make a 10-point concentration series at 1:3 dilution for each compound. The final top concentration of each compound was 5 μM. DMSO at a final concentration of 0.1% was used as a control. VCaP cells cultured in DMEM with 8% fetal bovine serum (FBS) were seeded at 50K cells per well in a 200 μL volume into the compound plate and incubated at 37° C. in a CO2 incubator for 24 h. The medium was carefully removed from the cells and the plate was placed on ice. One hundred μL of ice-cold 1x cell lysis buffer from Cell Signaling Technologies (Cat #9803) was added to each well of the cells and the plate was incubated at 4° C. on a shaker for 1 h. Fifteen μL of cell lysate was used for AR ELISA detection using a PathScan Total Sandwich AR ELISA kit (Cell Signaling Technology, Cat #12580). AR levels in compound-treated wells were normalized to that of DMSO control and expressed as percent of control (PoC) (y). A Four Parameter Logistic Model (Sigmoidal Dose-Response Model) was used to determine the compound's DC50, and EC50, using the following equation:
[formula] • A=YMin (lowest AR level normalized to DMSO control in response to compound treatment, as determined by curve fit) • B=YMax (maximum AR level as determined by curve fit) • C=EC50 • D=Hill Slope • x=compound concentration • EC50=the concentration of compound when y=(YMax−YMin)/2 • DC50=the concentration of the compound when y=50% of DMSO control (50% AR degradation) • y=AR protein level normalized to DMSO control
The lowest measured AR level normalized to DMSO control in response to compound treatment, termed Y value, was used to characterize the compound-mediated AR degradation efficiency.

| SMILES | Y (AR degradation efficiency, % of DMSO control) | DC50 [nM] |
| --- | --- | --- |
| CCc1cc(N2C(=S)N(c3ccc(C#N)c(C(F)(F)F)c3)C(=O)C2(C)C)ccc1OC[C@H](C)N1C[C@@H](C)N(CC(=O)Nc2cccc(NC3CCC(=O)NC3=O)c2)[C@@H](C)C1 (single isomer, unassigned) [Example 236] | ** (25%<Y<=35%) | 100 to 500 |
| CC(C)c1cc(N2C(=S)N(c3cnc(C#N)c(C(F)(F)F)c3)C(=O)C23CCC3)ccc1OCCN1C[C@@H](C)N(CC(=O)Nc2cc(C#N)cc(NC3CCC(=O)NC3=O)c2)[C@@H](C)C1 (stereo partly drawn) [Example 210, N-(3-cyano-5-(2,6-dioxopiperidin-3-ylamino)phenyl)-2-((2S,6R)-4-(2-(4-(7-(6-cyano-5-(trifluoromethyl)pyridin-3-yl)-8-oxo-6-thioxo-5,7-diazaspiro[3.4]octan-5-yl)-2-isopropylphenoxy)ethyl)-2,6-dimethylpiperazin-1-yl)acetamide] | * (0<Y<=25%) | < 100 |
| CCc1cc(N2C(=S)N(c3ccc(C#N)c(C(F)(F)F)c3)C(=O)C2(C)C)ccc1CCCN1C[C@@H](C)N(CC(=O)Nc2cccc(NC3CCC(=O)NC3=O)c2)C[C@H]1C (stereo partly drawn) [Example 273, 2-((2R,5R)-4-(3-(4-(3-(4-cyano-3-(trifluoromethyl)phenyl)-5,5-dimethyl-4-oxo-2-thioxoimidazolidin-1-yl)-2-ethylphenyl)propyl)-2,5-dimethylpiperazin-1-yl)-N-(3-(2,6-dioxopiperidin-3-ylamino)phenyl)acetamide] | * (0<Y<=25%) | < 100 |
| CC(C)c1cc(N2C(=S)N(c3cnc(C#N)c(C(F)(F)F)c3)C(=O)C2(C)C)ccc1OCCN1CCN(CC(=O)Nc2cccc(NC3CCC(=O)NC3=O)c2)[C@H](C(F)(F)F)C1 (stereo partly drawn) [Example 256, 2-((S)-4-(2-(4-(3-(6-cyano-5-(trifluoromethyl)pyridin-3-yl)-5,5-dimethyl-4-oxo-2-thioxoimidazolidin-1-yl)-2-isopropylphenoxy)ethyl)-2-(trifluoromethyl)piperazin-1-yl)-N-(3-(2,6-dioxopiperidin-3-ylamino)phenyl)acetamide] | ** (25%<Y<=35%) | 100 to 500 |
| CCc1cc(N2C(=S)N(c3ccc(C#N)c(C(F)(F)F)c3)C(=O)C2(C)C)ccc1OCCN1C[C@@H](C)N(CC(=O)Nc2cc(C#N)cc(NC3CCC(=O)NC3=O)c2)C[C@H]1C (stereo partly drawn) [Example 181, 2-((2R,5R)-4-(2-(4-(3-(4-cyano-3-(trifluoromethyl)phenyl)-5,5-dimethyl-4-oxo-2-thioxoimidazolidin-1-yl)-2-ethylphenoxy)ethyl)-2,5-dimethylpiperazin-1-yl)-N-(3-cyano-5-(2,6-dioxopiperidin-3-ylamino)phenyl)acetamide] | * (0<Y<=25%) | < 100 |
| CC(F)(F)c1cc(N2C(=S)N(c3cnc(C#N)c(C(F)(F)F)c3)C(=O)C2(C)C)ccc1OCCN1CCN(CC(=O)Nc2cc(NC3CCC(=O)NC3=O)cc(F)c2F)CC1 (centres unmarked) [Example 82, 2-(4-(2-(4-(3-(6-cyano-5-(trifluoromethyl)pyridin-3-yl)-5,5-dimethyl-4-oxo-2-thioxoimidazolidin-1-yl)-2-(1,1-difluoroethyl)phenoxy)ethyl)piperazin-1-yl)-N-(5-(2,6-dioxopiperidin-3-ylamino)-2,3-difluorophenyl)acetamide] | * (0<Y<=25%) | < 100 |
| C[C@@H]1CN(CCOc2ccc(N3C(=S)N(c4ccc(C#N)c(C(F)(F)F)c4)C(=O)C3(C)C)cc2F)C[C@H](C)N1CC(=O)Nc1cccc(NC2CCC(=O)NC2=O)c1 (stereo partly drawn) [Example 278, 2-((2S,6R)-4-(2-(4-(3-(4-cyano-3-(trifluoromethyl)phenyl)-5,5-dimethyl-4-oxo-2-thioxoimidazolidin-1-yl)-2-fluorophenoxy)ethyl)-2,6-dimethylpiperazin-1-yl)-N-(3-(2,6-dioxopiperidin-3-ylamino)phenyl)acetamide] | * (0<Y<=25%) | < 100 |
| CC(F)(F)c1cc(N2C(=S)N(c3ccc(C#N)c(C(F)(F)F)c3)C(=O)C2(C)C)ccc1OCCN1CCN(CC(=O)Nc2cc(Cl)cc(NC3CCC(=O)NC3=O)c2)CC1 (centres unmarked) [Example 157, N-(3-chloro-5-(2,6-dioxopiperidin-3-ylamino)phenyl)-2-(4-(2-(4-(3-(4-cyano-3-(trifluoromethyl)phenyl)-5,5-dimethyl-4-oxo-2-thioxoimidazolidin-1-yl)-2-(1,1-difluoroethyl)phenoxy)ethyl)piperazin-1-yl)acetamide] | * (0<Y<=25%) | < 100 |
| CC(F)(F)c1cc(N2C(=S)N(c3cnc(C#N)c(C(F)(F)F)c3)C(=O)C2(C)C)ccc1OCCN1CCN(CC(=O)Nc2cc(Cl)cc(NC3CCC(=O)NC3=O)c2)CC1 (centres unmarked) [Example 62, N-(3-chloro-5-(2,6-dioxopiperidin-3-ylamino)phenyl)-2-(4-(2-(4-(3-(6-cyano-5-(trifluoromethyl)pyridin-3-yl)-5,5-dimethyl-4-oxo-2-thioxoimidazolidin-1-yl)-2-(1,1-difluoroethyl)phenoxy)ethyl)piperazin-1-yl)acetamide] | * (0<Y<=25%) | < 100 |
| CC(C)c1cc(N2C(=S)N(c3ccc(C#N)c(C(F)(F)F)c3)C(=O)C2(C)C)ccc1OCCN1C[C@@H](C)N(CC(=O)Nc2cc(F)cc(NC3CCC(=O)NC3=O)c2)[C@@H](C)C1 (stereo partly drawn) [Example 213, 2-((2S,6R)-4-(2-(4-(3-(4-cyano-3-(trifluoromethyl)phenyl)-5,5-dimethyl-4-oxo-2-thioxoimidazolidin-1-yl)-2-isopropylphenoxy)ethyl)-2,6-dimethylpiperazin-1-yl)-N-(3-(2,6-dioxopiperidin-3-ylamino)-5-fluorophenyl)acetamide] | * (0<Y<=25%) | < 100 |
| N#Cc1ccc(N2C(=O)C3(CCC3)N(c3ccc(OCCN4CCN(CC(=O)Nc5cccc(NC6CCC(=O)NC6=O)c5)CC4)c(Cl)c3)C2=S)cc1C(F)(F)F (centres unmarked) [Example 7, hydrochloride] | * (0<Y<=25%) | < 100 |
| Cc1cc(OCCN2C[C@@H](C)N(CC(=O)Nc3cccc(NC4CCC(=O)NC4=O)c3)[C@@H](C)C2)c(C(C)C)cc1N1C(=S)N(c2ccc(C#N)c(C(F)(F)F)c2)C(=O)C1(C)C (stereo partly drawn) [Example 253, 2-((2S,6R)-4-(2-(4-(3-(4-cyano-3-(trifluoromethyl)phenyl)-5,5-dimethyl-4-oxo-2-thioxoimidazolidin-1-yl)-2-isopropyl-5-methylphenoxy)ethyl)-2,6-dimethylpiperazin-1-yl)-N-(3-(2,6-dioxopiperidin-3-ylamino)phenyl)acetamide] | * (0<Y<=25%) | 100 to 500 |
| CCc1cc(N2C(=S)N(c3cnc(C#N)c(C(F)(F)F)c3)C(=O)C2(C)C)ccc1OCCN1CCN(CC(=O)Nc2cc(F)cc(NC3CCC(=O)NC3=O)c2)CC1 (centres unmarked) [Example 63, 2-(4-(2-(4-(3-(6-cyano-5-(trifluoromethyl)pyridin-3-yl)-5,5-dimethyl-4-oxo-2-thioxoimidazolidin-1-yl)-2-ethylphenoxy)ethyl)piperazin-1-yl)-N-(3-(2,6-dioxopiperidin-3-ylamino)-5-fluorophenyl)acetamide] | * (0<Y<=25%) | < 100 |
